# Results from ChEMBL document CHEMBL5465560, “Selectivity Literature for EUbOPEN Chemogenomic Library” (2024).
# Columns and labels:
# [1] = biological target: Serine/threonine-protein kinase MRCK alpha (Homo sapiens) (UniProt Q5VT25); assay: Selectivity interaction (KinomeScan (DiscoverX)) EUB0001049a CDC42BPA; conditions: at 1 µM
# [2] = biological target: T1, Dual specificity tyrosine-phosphorylation-regulated kinase 2 (Homo sapiens) (UniProt Q92630); assay: Selectivity interaction (KinomeScan (DiscoverX)) EUB0000229b DYRK2; conditions: at 10 µM
# T1 sequence (whole entry): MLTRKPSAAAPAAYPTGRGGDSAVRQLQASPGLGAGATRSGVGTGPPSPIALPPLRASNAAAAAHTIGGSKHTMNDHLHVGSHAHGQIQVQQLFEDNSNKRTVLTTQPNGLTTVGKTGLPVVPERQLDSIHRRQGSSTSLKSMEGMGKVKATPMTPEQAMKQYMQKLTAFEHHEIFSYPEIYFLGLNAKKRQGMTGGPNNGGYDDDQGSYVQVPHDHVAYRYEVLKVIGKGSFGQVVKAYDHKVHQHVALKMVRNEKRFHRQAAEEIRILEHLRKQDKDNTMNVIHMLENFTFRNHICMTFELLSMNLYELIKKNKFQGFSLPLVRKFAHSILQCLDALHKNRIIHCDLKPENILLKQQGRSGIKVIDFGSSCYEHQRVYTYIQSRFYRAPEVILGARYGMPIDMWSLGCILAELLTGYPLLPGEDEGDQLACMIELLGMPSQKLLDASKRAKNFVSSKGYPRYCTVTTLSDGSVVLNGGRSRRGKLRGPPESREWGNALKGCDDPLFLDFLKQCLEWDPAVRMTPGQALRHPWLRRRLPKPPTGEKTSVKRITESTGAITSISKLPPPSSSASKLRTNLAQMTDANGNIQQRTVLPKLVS
# [3] = tested on: Epidermal growth factor receptor (Homo sapiens), P00533 [UNDEFINED MUTATION]; assay: Selectivity interaction (KinomeScan (DiscoverX)) EUB0000045b EGFR; conditions: at 1 µM
# Epidermal growth factor receptor (Homo sapiens), P00533 [UNDEFINED MUTATION], sequence (P00533 whole entry, looked up, change not shown): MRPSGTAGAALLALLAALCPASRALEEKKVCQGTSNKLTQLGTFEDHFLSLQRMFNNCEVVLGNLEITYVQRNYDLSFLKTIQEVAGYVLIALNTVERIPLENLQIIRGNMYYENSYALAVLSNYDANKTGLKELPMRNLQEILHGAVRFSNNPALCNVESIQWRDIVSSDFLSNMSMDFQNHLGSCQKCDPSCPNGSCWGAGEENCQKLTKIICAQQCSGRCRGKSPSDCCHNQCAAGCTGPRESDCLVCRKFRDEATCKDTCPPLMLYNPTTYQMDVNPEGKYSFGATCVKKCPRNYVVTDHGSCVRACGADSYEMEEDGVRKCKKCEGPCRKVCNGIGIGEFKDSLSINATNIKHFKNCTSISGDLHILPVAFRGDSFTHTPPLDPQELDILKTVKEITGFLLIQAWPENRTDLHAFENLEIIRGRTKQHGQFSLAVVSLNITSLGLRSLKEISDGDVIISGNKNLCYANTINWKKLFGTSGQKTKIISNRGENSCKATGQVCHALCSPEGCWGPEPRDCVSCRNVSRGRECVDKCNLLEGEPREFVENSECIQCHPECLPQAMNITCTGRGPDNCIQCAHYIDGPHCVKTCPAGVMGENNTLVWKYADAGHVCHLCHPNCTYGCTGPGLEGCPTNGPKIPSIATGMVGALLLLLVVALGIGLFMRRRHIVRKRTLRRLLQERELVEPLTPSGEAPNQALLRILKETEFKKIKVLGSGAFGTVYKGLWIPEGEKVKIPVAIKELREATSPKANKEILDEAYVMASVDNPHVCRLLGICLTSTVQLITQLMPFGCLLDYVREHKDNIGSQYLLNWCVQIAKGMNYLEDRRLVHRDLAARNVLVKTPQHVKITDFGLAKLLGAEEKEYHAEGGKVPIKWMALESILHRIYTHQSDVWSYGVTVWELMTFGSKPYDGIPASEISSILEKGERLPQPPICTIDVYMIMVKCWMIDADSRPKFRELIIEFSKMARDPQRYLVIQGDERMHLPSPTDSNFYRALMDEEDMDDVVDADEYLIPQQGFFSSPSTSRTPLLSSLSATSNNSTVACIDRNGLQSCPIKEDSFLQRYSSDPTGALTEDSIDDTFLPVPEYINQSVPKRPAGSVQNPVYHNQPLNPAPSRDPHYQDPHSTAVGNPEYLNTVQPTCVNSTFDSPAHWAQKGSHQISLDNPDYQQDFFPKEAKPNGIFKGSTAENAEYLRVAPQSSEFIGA
# [4] = biological target: T2, Mitogen-activated protein kinase kinase kinase kinase 2 (Homo sapiens) (UniProt Q12851); assay: Selectivity interaction (ActivX KiNativ screen (ex vivo kinase selectivity in human PBMCs)) EUB0001619a MAP4K2; format: cell-based; conditions: PBMC, at 1 µM
# T2 sequence (whole entry): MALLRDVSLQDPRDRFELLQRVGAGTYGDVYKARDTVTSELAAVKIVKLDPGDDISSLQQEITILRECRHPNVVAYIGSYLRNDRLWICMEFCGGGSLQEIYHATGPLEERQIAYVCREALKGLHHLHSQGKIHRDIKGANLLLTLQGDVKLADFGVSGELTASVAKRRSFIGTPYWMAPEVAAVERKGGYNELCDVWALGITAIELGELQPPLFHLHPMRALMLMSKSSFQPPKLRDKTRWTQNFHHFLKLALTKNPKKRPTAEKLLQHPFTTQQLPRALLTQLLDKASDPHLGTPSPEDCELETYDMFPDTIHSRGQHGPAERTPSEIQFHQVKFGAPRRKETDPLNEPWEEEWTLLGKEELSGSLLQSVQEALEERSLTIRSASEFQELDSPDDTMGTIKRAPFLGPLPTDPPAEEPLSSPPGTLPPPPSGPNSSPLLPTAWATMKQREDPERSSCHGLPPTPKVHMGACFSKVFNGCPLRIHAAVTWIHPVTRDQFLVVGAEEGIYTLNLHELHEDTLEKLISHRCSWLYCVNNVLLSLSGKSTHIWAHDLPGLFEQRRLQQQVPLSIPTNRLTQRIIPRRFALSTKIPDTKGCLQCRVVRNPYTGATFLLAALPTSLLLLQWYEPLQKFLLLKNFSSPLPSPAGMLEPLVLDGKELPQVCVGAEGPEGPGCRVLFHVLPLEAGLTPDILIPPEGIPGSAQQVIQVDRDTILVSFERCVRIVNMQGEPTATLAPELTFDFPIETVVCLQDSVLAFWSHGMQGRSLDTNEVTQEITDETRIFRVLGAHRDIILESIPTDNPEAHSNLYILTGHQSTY
# [5] = biological target: Dual specificity protein kinase CLK4 (Homo sapiens, UniProt Q9HAZ1); assay: Selectivity interaction (KinomeScan (DiscoverX)) EUB0000655a CLK4; conditions: at 10 µM
# Dual specificity protein kinase CLK4, sequence (Q9HAZ1 whole entry, looked up): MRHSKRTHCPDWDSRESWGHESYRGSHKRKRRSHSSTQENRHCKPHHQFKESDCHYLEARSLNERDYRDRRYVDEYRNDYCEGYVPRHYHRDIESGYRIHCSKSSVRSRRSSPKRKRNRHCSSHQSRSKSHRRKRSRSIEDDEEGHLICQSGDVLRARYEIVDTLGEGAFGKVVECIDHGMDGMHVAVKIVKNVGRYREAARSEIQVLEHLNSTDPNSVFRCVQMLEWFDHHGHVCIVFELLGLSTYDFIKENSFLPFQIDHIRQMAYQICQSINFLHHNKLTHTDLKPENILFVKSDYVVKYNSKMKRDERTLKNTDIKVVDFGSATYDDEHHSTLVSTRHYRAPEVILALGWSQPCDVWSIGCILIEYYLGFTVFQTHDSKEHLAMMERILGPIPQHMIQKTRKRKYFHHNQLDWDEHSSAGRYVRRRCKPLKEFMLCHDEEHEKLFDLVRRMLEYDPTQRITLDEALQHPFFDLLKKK
# [6] = biological target: T3, Serine/threonine-protein kinase NLK (Homo sapiens) (UniProt Q9UBE8); assay: Selectivity interaction (KinomeScan (DiscoverX)) EUB0000607a NLK; conditions: at 10 µM
# T3 sequence (whole entry): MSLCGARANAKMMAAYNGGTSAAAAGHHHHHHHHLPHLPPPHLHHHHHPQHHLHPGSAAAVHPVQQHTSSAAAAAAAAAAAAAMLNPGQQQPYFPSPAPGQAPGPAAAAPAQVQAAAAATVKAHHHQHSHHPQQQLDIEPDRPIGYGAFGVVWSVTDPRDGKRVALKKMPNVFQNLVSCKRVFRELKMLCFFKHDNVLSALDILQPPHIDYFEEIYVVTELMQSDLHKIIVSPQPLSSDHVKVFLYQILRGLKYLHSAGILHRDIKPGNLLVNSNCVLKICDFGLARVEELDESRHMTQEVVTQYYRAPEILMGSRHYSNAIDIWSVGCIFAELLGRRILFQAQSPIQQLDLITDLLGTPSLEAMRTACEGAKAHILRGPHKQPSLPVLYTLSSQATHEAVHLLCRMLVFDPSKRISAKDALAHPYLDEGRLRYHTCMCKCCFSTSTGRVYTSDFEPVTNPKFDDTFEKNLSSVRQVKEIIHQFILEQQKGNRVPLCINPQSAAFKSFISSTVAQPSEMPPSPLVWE
# Serine/threonine-protein kinase MRCK alpha (Homo sapiens), sequence (Q5VT25 whole entry): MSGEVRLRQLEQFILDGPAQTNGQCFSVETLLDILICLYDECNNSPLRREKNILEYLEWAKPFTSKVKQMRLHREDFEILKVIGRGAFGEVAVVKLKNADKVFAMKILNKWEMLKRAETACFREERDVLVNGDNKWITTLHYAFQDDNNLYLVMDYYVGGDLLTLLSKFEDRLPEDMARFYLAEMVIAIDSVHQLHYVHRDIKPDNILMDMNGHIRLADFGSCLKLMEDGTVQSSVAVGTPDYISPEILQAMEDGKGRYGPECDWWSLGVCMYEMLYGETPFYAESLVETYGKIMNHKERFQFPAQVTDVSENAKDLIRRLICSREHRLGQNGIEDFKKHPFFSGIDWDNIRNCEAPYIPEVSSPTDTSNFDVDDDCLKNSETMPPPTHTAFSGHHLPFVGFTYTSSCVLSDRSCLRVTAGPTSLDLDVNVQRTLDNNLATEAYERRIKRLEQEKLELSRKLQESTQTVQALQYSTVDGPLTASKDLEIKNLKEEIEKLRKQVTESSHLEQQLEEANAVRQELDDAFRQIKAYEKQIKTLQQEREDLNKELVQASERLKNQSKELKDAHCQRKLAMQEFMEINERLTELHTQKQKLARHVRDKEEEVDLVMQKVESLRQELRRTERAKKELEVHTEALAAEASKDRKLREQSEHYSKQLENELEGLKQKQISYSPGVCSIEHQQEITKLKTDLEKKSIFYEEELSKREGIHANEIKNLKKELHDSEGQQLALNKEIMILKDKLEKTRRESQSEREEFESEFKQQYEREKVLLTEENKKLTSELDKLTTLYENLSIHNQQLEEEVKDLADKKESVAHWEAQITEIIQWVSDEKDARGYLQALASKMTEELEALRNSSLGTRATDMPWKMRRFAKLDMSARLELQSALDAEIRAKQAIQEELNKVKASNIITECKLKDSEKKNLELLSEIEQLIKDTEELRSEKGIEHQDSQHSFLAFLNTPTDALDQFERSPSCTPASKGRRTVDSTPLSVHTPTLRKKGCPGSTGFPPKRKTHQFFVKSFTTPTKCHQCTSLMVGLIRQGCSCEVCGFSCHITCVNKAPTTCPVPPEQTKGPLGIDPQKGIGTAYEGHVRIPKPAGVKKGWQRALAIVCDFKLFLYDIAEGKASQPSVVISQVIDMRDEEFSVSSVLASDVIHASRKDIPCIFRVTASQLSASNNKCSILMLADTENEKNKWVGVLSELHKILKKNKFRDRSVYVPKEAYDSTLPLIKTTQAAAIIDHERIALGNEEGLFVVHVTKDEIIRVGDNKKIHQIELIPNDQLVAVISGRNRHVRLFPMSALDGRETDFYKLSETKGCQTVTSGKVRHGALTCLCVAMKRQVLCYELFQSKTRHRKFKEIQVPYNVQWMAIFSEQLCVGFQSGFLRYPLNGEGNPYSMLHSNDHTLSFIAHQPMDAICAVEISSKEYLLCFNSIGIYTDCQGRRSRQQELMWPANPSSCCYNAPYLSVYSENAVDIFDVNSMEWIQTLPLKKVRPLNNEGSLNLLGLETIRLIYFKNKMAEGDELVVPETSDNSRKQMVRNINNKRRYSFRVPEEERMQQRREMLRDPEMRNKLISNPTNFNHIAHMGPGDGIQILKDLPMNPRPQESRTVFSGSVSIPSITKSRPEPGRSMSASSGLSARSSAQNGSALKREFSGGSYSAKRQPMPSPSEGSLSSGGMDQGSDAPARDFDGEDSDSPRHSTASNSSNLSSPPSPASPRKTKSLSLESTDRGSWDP
compound,measurement,setting,value
COc1cc(Nc2nc(C)cc(-c3cnn4nc(OC)ccc34)n2)cc(C(F)(F)F)c1,% of control,[1],92%
COc1cc(N(C)c2ccnc3ccc(C(F)(F)F)cc23)cc(OC)c1OC,% binding,[2],84%
C=CC(=O)Nc1cc(-n2c(=O)ccc3cnc4ccc(-c5ccc(NS(C)(=O)=O)cc5)cc4c32)ccc1C,% of control,[3],100%
N#Cc1cccc(-c2c[nH]c3ncnc(N4CCOCC4)c23)c1,% of inhibition,[4],24%
CN(C)CCOc1ccc(-c2nc(-c3ccncc3)c(-c3ccc4c(c3)CC/C4=N\O)[nH]2)cc1,% of control,[5],68%
CNC(=O)Nc1ccc(-c2nc(N3CC4CCC(C3)O4)c3cnn(C4CCC5(CC4)OCCO5)c3n2)cc1,% of control,[6],85%
